Results reported in PMC10247784, “Physiological activation of human and mouse bitter taste receptors by bile acids” (Communications Biology, 2023).
“And” between values parts separate entries of the source, which are not always exact repeats. Equal entries are not always repeated.

Target: T1, human TAS2R1 (Homo sapiens, UniProt Q9NYW7)
T1 construct: expressed in transfected cells; host or cells: HEK293T-Gα16gust44
T1 sequence (Q9NYW7 1-299): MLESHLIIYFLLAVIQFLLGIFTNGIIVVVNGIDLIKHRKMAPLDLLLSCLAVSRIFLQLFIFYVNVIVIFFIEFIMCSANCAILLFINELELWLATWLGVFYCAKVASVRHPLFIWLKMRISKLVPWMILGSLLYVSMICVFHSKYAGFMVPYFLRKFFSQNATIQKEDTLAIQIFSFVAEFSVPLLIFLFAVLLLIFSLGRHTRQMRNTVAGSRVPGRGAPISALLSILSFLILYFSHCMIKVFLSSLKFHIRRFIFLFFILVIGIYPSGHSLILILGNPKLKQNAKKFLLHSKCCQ
Assay: Calcium imaging assay (FLIPR), HEK293T-Gα16gust44 cells transfected with human TAS2R1
Format: cell-based
Method: This set of bile acids was chosen because of their commercial availability in high purities, their diversity within the class of bile acids and their previous detection and quantitation in human blood. Stock solutions were prepared in DMSO.
As basal growth medium for the HEK293T-Gα16gust44 cell line[17],[59] served Dulbecco’s modified eagle medium (DMEM) (Thermo Fisher Scientific, Darmstadt, Germany) supplemented with 10 % fetal bovine serum (Sigma-Aldrich, Steinheim, Germany), 2 mM L-glutamine (Sigma-Aldrich, Steinheim, Germany), 100 units/ml penicillin (Sigma Aldrich, Steinheim, Germany) and 100 µg/ml streptomycin (Sigma Aldrich, Steinheim, Germany). Growth conditions were 37 °C, 5 % CO2 and saturated air-humidity[60].
HEK293T-Gα16gust44 cells were seeded on poly-D-lysine (10 µg/ml) coated 96-well plates to reach a confluence of 40-60 % the next day. For transient transfection 150 ng of plasmid DNA containing the receptor of interest and 0.3 µl lipofectamine 2000 (Thermo Fisher Scientific, Darmstadt, Germany) per well were used and transfection took place according to the manual of lipofectamine 2000. […] The empty vector DNA (mock) was transfected as negative control[14],[41].
Cells were loaded using the calcium-sensitive fluorescent dye Fluo-4-AM (Abcam, Cambridge, Great Britain) in the presence of 2.5 mM probenecid (Sigma-Aldrich, Steinheim, Germany) the day after transfection[13],[41]. 1 h after loading, cells were washed with C1 buffer using a BioTek Cell Washer, incubated in the dark for half an hour and washed again. For automated agonist application and measurement of fluorescence changes, a FLIPR^TETRA device (Molecular Devices, San José, United States) was used. Viability of cells was tested by application of 100 nM Somatostatin 14 (Bachem, Bubendorf, Switzerland)[42].
Measured data were negative control corrected by subtracting the signal of the mock-transfected cells and exported to Microsoft Excel using the FLIPR software ScreenWorks 4.2. In Microsoft Excel software, standardization of maximum fluorescence intensities to the basal fluorescence and normalization to the buffer-only control was done to calculate the relative fluorescence changes (ΔF/F).
Initial screening experiments performed in duplicate wells were confirmed by at least one replication and representative traces were selected for display. All dose-response relationships were determined by three independent experiments (biological replicates) performed in duplicates (technical replicates). Threshold concentrations, defined as lowest substance concentrations leading to statistically significant elevated fluorescence changes in receptor-transfected cells compared with empty vector-transfected cells, were determined using SigmaPlot with Student’s t-test to evaluate statistical significance (p < 0.01).

With `C[C@H](CCC(=O)O)[C@H]1CC[C@H]2[C@@H]3[C@H](O)C[C@@H]4C[C@H](O)CC[C@]4(C)[C@H]3CC[C@]12C` [Chenodeoxycholic Acid, chenodeoxycholic acid] the “Efficacy = maximal amplitude (ΔF/F)” value (TAS2R1, bile acids, mean) was 0.1118, the “Efficacy (maximal amplitude ΔF/F), individual data points” value (TAS2R1, bile acids, single replicates, listed as CDCA) was 0.09822 and 0.1595 and 0.07759 and the RLU (Time 0 s) was 0 RLU. For the same compound, the RLU (Time 2.015 s) was 19.0362 RLU, the RLU (Time 4.015 s) was 1.217 RLU and the RLU (Time 6.015 s) was -17.015 RLU. It also gave an RLU (Time 8.015 s) of -2.669 RLU, an RLU (Time 12.015 s) of 20.3444 RLU and an RLU (Time 14.015 s) of 20.4897 RLU. For the same compound, the RLU (Time 16.015 s) was 20.4897 RLU, the RLU (Time 18.015 s) was 0.1896 RLU and the RLU (Time 18.796 s) was 35.4441 RLU. The RLU (Time 20.796 s) was 34.972 RLU, the RLU (Time 22.796 s) was 66.6032 RLU and the RLU (Time 24.796 s) was 169.759 RLU. The RLU (Time 26.796 s) was 276.637 RLU, the RLU (Time 28.796 s) was 430.728 RLU and the RLU (Time 30.796 s) was 521.85 RLU. For the same compound, the RLU (Time 32.796 s) was 667.246 RLU, the RLU (Time 34.796 s) was 744.49 RLU and the RLU (Time 36.796 s) was 777.672 RLU. For the same compound, the RLU (Time 38.796 s) was 835.786 RLU, the RLU (Time 40.796 s) was 853.586 RLU and the RLU (Time 42.796 s) was 876.11 RLU. For the same compound, the RLU (Time 44.796 s) was 905.241 RLU, the RLU (Time 46.796 s) was 902.191 RLU and the RLU (Time 48.796 s) was 919.121 RLU. The RLU (Time 50.796 s) was 927.172 RLU, the RLU (Time 52.796 s) was 893.665 RLU and the RLU (Time 54.796 s) was 936.083 RLU. It also gave an RLU (Time 56.796 s) of 944.124 RLU, an RLU (Time 58.796 s) of 915.714 RLU and an RLU (Time 60.796 s) of 876.524 RLU. The RLU (Time 62.796 s) was 877.876 RLU, the RLU (Time 64.796 s) was 906.896 RLU and the RLU (Time 66.796 s) was 861.974 RLU. The RLU (Time 68.796 s) was 872.092 RLU, the RLU (Time 70.796 s) was 871.317 RLU and the RLU (Time 72.796 s) was 854.469 RLU. It also gave an RLU (Time 74.796 s) of 844.188 RLU, an RLU (Time 76.796 s) of 841.862 RLU and an RLU (Time 78.796 s) of 815.084 RLU. The RLU (Time 80.796 s) was 833.544 RLU, the RLU (Time 82.796 s) was 792.555 RLU and the RLU (Time 84.796 s) was 783.457 RLU. The RLU (Time 86.796 s) was 757.585 RLU, the RLU (Time 88.796 s) was 790.002 RLU and the RLU (Time 90.796 s) was 748.006 RLU. For the same compound, the RLU (Time 92.796 s) was 752.186 RLU, the RLU (Time 94.796 s) was 735.827 RLU and the RLU (Time 96.796 s) was 731.254 RLU. For the same compound, the RLU (Time 98.796 s) was 711.692 RLU, the RLU (Time 100.796 s) was 698.367 RLU and the RLU (Time 102.796 s) was 713.847 RLU. It also gave an RLU (Time 104.796 s) of 673.465 RLU, an RLU (Time 106.796 s) of 693.426 RLU and an RLU (Time 108.796 s) of 681.535 RLU. The RLU (Time 110.796 s) was 647.896 RLU, the RLU (Time 112.796 s) was 643.349 RLU and the RLU (Time 114.796 s) was 607.76 RLU. It also gave an RLU (Time 116.796 s) of 609.573 RLU, an RLU (Time 118.796 s) of 614.947 RLU and an RLU (Time 120.796 s) of 582.22 RLU. The RLU (Time 122.796 s) was 589.185 RLU, the RLU (Time 124.796 s) was 584.345 RLU and the RLU (Time 126.796 s) was 601.503 RLU. The RLU (Time 128.796 s) was 551.854 RLU, the RLU (Time 130.796 s) was 581.558 RLU and the RLU (Time 132.796 s) was 570.089 RLU. The RLU (Time 134.796 s) was 541.966 RLU, the RLU (Time 136.796 s) was 537.391 RLU and the RLU (Time 137.562 s) was 528.381 RLU. For the same compound, the RLU (Time 143.562 s) was 528.401 RLU, the RLU (Time 149.562 s) was 492.752 RLU and the RLU (Time 155.562 s) was 464.959 RLU. It also gave an RLU (Time 161.562 s) of 428.355 RLU, an RLU (Time 167.562 s) of 423.067 RLU and an RLU (Time 173.562 s) of 376.724 RLU. The RLU (Time 179.562 s) was 392.276 RLU, the RLU (Time 185.562 s) was 341.893 RLU and the RLU (Time 191.562 s) was 346.95 RLU. The RLU (Time 197.562 s) was 320.481 RLU, the RLU (Time 203.562 s) was 327.574 RLU and the RLU (Time 209.562 s) was 318.301 RLU. It also gave an RLU (Time 215.562 s) of 277.825 RLU, an RLU (Time 221.562 s) of 283.821 RLU and an RLU (Time 227.562 s) of 172.224 RLU. For the same compound, the RLU (Time 233.562 s) was 155.786 RLU, the RLU (Time 239.562 s) was 141.722 RLU and the RLU (Time 245.562 s) was 124.55 RLU. The RLU (Time 293.562 s) was 126.733 RLU, the RLU (Time 299.562 s) was 134.725 RLU and the RLU (calcium trace, sheet TAS2R1, Time 305.562 s) was 138.341 RLU. The RLU (calcium trace, sheet TAS2R1, Time 311.562 s) was 138.414 RLU, the RLU (calcium trace, sheet TAS2R1, Time 317.562 s) was 144.044 RLU and the RLU (calcium trace, sheet TAS2R1, Time 323.562 s) was 138.244 RLU. It also gave an RLU (calcium trace, sheet TAS2R1, Time 329.562 s) of 121.3 RLU, an RLU (calcium trace, sheet TAS2R1, Time 335.562 s) of 104.786 RLU and an RLU (calcium trace, sheet TAS2R1, Time 341.562 s) of 124.793 RLU. The RLU (calcium trace, sheet TAS2R1, Time 347.562 s) was 124.739 RLU, the RLU (calcium trace, sheet TAS2R1, Time 353.562 s) was 136.304 RLU and the RLU (calcium trace, sheet TAS2R1, Time 359.562 s) was 146.172 RLU. For the same compound, the “Δ F/F” value (conc. 0,01 mM, TAS2R1) was 0.1118, the “Δ F/F” value (conc. 0,00003 mM, TAS2R1) was -0.002448 and the “Δ F/F” value (conc. 0,0001 mM, TAS2R1) was -0.01316. The “Δ F/F” value (conc. 0,0003 mM, TAS2R1) was -0.003718, the “Δ F/F” value (conc. 0,001 mM, TAS2R1) was 0.01001 and the “Δ F/F” value (conc. 0,003 mM, TAS2R1) was 0.03254. For the same compound, the “Activation threshold concentration TAS2R1” value (lowest concentration with significantly increased fluorescence vs empty vector (p < 0.01)) was 3 µM and 3.00 µM and the “Receptor response TAS2R1” value (screening) was “activated”.
